≈ marks a conversion by molar mass, not a printed value.
Conditions: buffer; pH 7.4; 200.0 µM

Compared with `Fc1cccc(NC(=S)Nc2cccc3ccccc23)c1`, `CCOc1ccc(C(=O)Nc2cccc3cccnc23)cc1` is 28-fold lower in solubility kinetic: 19.6 µg/mL (≈ 66.1 µM) for the first, 0.7 µg/mL (≈ 2.39 µM) for the second.

Compared with `CC(C)c1ccc(NC(=O)COC(=O)C2CC3C=CC2C3)cc1` (stereo unspecified), `COc1ccc(NC(=O)COC(=O)Cn2cnc3ccccc32)cc1` is higher in solubility kinetic: 22.1 µg/mL (≈ 70.5 µM) for the first, over 50.9 µg/mL for the second.

`Cc1c([N+](=O)[O-])c(C(=O)NC2CCCCC2)nn1C` and `CN(C(=O)NC1CCCCC1)c1ccccc1` cannot be ordered by solubility kinetic: over 39.9 µg/mL for the first, over 34.8 µg/mL for the second.

First: C=CCNC(=S)N1CCN(c2ncc(C(F)(F)F)cc2Cl)CC1
Second: CN1CCCN(C(=O)COc2ccc(F)cc2Cl)CC1
The solubility kinetic of the first is lower: 35.7 µg/mL (≈ 97.9 µM) for the first, over 45.1 µg/mL for the second.

First: Cc1ccc(N2C(=O)SC(Cc3ccccc3)C2=O)cc1 (stereo unspecified)
Second: CCC1CN(C(=O)NCc2ccc(C)cc2)c2ccccc2O1 (stereo unspecified)
The solubility kinetic of the first is 26-fold lower: 0.8 µg/mL (≈ 2.69 µM) for the first, 20.8 µg/mL (≈ 67 µM) for the second.

First: Cc1cccc(C)c1OCC(=O)Nc1ccccc1C(F)(F)F
Second: CCOc1ccccc1NC(=O)c1ccc2c(c1)C(=O)N(CC)C2=O
The solubility kinetic of the first is higher: 1.6 µg/mL (≈ 4.95 µM) for the first, under 0.4 µg/mL for the second.

`Cc1cc(Cl)cc(C)c1OCCn1ccnc1.Cl` and `O=C(O)C(=O)O.c1ccc2cc(OCCCn3ccnc3)ccc2c1` cannot be ordered by solubility kinetic: over 43.1 µg/mL for the first, over 51.4 µg/mL for the second.

First: CN1C(c2ccccc2)CC(=NO)CC1c1ccccc1 (stereo unspecified)
Second: Cc1cc[n+](-c2ccccc2)c2ccccc12.[Cl-]
The solubility kinetic of the first is 12-fold lower: 1.4 µg/mL (≈ 4.99 µM) for the first, 17.3 µg/mL for the second.

Compared with `O=C(c1cc2cc(Cl)ccc2[nH]1)N1CCC2(CC1)OCCO2`, `O=C(Cc1ccccc1Cl)N1CCOCC1` is higher in solubility kinetic: 16 µg/mL (≈ 49.9 µM) for the first, over 36 µg/mL for the second.

`CC(Sc1nncs1)C(=O)Nc1ccc2c(c1)OCCO2` (stereo unspecified) and `O=C(Nc1cccc(C(=O)O)c1)Nc1ccc2c(c1)OCO2` cannot be ordered by solubility kinetic: over 48.5 µg/mL for the first, over 45 µg/mL for the second.

First: CCC(C)NC(=O)N1c2ccccc2Sc2ccccc21 (stereo unspecified)
Second: CNC(=O)c1cnc(-c2ccccc2)nc1-c1ccccc1
The solubility kinetic of the first is 1.9-fold higher: 28 µg/mL (≈ 93.8 µM) for the first, 14.8 µg/mL (≈ 51.2 µM) for the second.

Compared with `COC(=O)c1cccn(CC(=O)c2ccc(Cl)cc2)c1=O`, `COc1ccc(NC(=O)Cn2cc(C(C)=O)c3ccccc32)cc1` is lower in solubility kinetic: over 45.9 µg/mL for the first, 0.5 µg/mL (≈ 1.55 µM) for the second.

`O=C(NCC(=O)N1CCOCC1)OCc1ccccc1` and `CCOC(=O)c1ccccc1NC(=O)Cc1ccc(OC)c(S(=O)(=O)N2CCOCC2)c1` cannot be ordered by solubility kinetic: over 41.7 µg/mL for the first, 60.4 µg/mL (≈ 131 µM) for the second.

First: CCC(Oc1ccc(C)cc1)C(=O)Nc1ccc2c(c1)n(C)c(=O)n2C (stereo unspecified)
Second: CC(=O)Nc1ccc(/C=C2\CCc3ccccc3C2=O)cc1
The solubility kinetic of the first is higher: over 53 µg/mL for the first, 1.2 µg/mL (≈ 4.12 µM) for the second.

Going from `CN(CC(=O)N1CCCC1)S(=O)(=O)c1cccc(Cl)c1` to `CCCCNC(=O)c1cc(S(=O)(=O)N2CCCCC2)oc1C`, the solubility kinetic falls from over 47.5 µg/mL to 24 µg/mL (≈ 73.1 µM).

First: CCOc1ccccc1NC(=S)NCc1cccn1C
Second: COc1ccc(CNC(=O)COc2cccnc2[N+](=O)[O-])cc1
The solubility kinetic of the first is lower: 38.5 µg/mL (≈ 133 µM) for the first, over 47.6 µg/mL for the second.

Going from `COc1ccc(CCNC(=O)COC(=O)c2cnc(Cl)c(Cl)c2)cc1` to `COc1ccc(NC(=O)COC(=O)c2ccc3c(c2)OCO3)c(OC)c1`, the solubility kinetic falls from 5.4 µg/mL (≈ 14.1 µM) to 1.9 µg/mL (≈ 5.29 µM) (2.8-fold).

Going from `Cc1nc2c(Cl)cccc2c2c1CC(CBr)O2` (stereo unspecified) to `O=C(Nc1cccnc1Cl)c1cccc(F)c1`, the solubility kinetic rises from 12.5 µg/mL (≈ 40 µM) to 36.1 µg/mL (≈ 144 µM) (2.9-fold).

Going from `Cc1ccnc(N2C3CCC2CC(O)(c2ccccc2)C3)n1` (stereo unspecified) to `Cc1ccccc1C(=O)Nc1nc(-c2cccnc2)cs1`, the solubility kinetic falls from over 44.3 µg/mL to 3.9 µg/mL (≈ 13.2 µM).

Compared with `CCN(C(=O)COC(=O)c1ccccc1O)c1cccc2ccccc12`, `CN(c1ccc(OCC(=O)Nc2ccccc2C(=O)O)cc1)S(=O)(=O)c1ccc(Cl)cc1` is higher in solubility kinetic: 3.5 µg/mL (≈ 10 µM) for the first, over 71.2 µg/mL for the second.

First: COc1ccc(N2CCN(C(=O)c3cc4c(s3)CCCCC4)CC2)cc1
Second: CCOc1ccc(N2C(=O)CC(SCC(=O)O)C2=O)cc1 (stereo unspecified)
The solubility kinetic of the first is lower: 5.3 µg/mL (≈ 14.3 µM) for the first, over 46.4 µg/mL for the second.

Compared with `CC(C)(C)NS(=O)(=O)c1ccc(NC(=O)CS(=O)(=O)Cc2ccccc2)cc1`, `NC(=O)c1cc([N+](=O)[O-])ccc1NCCc1ccccc1` is lower in solubility kinetic: over 63.7 µg/mL for the first, under 0.2 µg/mL for the second.

`Cc1ccc(NC(=O)CCC(=O)c2cccs2)c(O)c1` and `Cc1ccc(C(=O)Nc2nccs2)cc1` are within 1.5-fold of each other in solubility kinetic: 24.2 µg/mL (≈ 83.6 µM) for the first, 16.5 µg/mL (≈ 75.6 µM) for the second.

`O=C(Nc1ccc(Cl)c(Cl)c1)Nc1ccccc1O` and `N#Cc1ccccc1NC(=O)c1ccc2c(c1)OCO2` are within 1.5-fold of each other in solubility kinetic: 8.5 µg/mL (≈ 28.6 µM) for the first, 10.8 µg/mL (≈ 40.6 µM) for the second.

`Nc1cccc(S(=O)(=O)Nc2ccc(Br)cc2)c1` and `COc1ccc(S(=O)(=O)Nc2cccnc2)cc1OC` cannot be ordered by solubility kinetic: over 49.1 µg/mL for the first, over 44.1 µg/mL for the second.

`O=C(Cc1c[nH]c2ccccc12)NCc1ccncc1` and `OC(CNCc1ccc2c(c1)OCO2)COc1ccccc1` (stereo unspecified) cannot be ordered by solubility kinetic: over 39.8 µg/mL for the first, over 45.2 µg/mL for the second.

`CC1=CC(C)C(C(=O)O)C(C(=O)N2CCN(C)CC2)C1` (stereo unspecified) and `Cc1ccc(S(=O)(=O)NC2CC2)cc1` cannot be ordered by solubility kinetic: over 42.1 µg/mL for the first, over 31.7 µg/mL for the second.

`CCn1ncc(-c2csc(N)n2)c1C` and `CCN(CC)S(=O)(=O)c1cccc(-c2csc(C)n2)c1` cannot be ordered by solubility kinetic: over 31.2 µg/mL for the first, 37.8 µg/mL (≈ 122 µM) for the second.

Compared with `Cc1ccsc1CNCCc1ccc(F)cc1`, `COc1ccc(CCNc2c([N+](=O)[O-])ncn2C)cc1OC` is 1.7-fold higher in solubility kinetic: 27.1 µg/mL (≈ 109 µM) for the first, 45.8 µg/mL (≈ 150 µM) for the second.

`COc1nc(N(C)C)nc(N(C#N)S(=O)(=O)c2ccc(C)cc2)n1` and `CCOc1ccc2oc(C(=O)NCC(C)(C)CN(C)C)c(C)c2c1.Cl` are within 1.5-fold of each other in solubility kinetic: 51.7 µg/mL (≈ 148 µM) for the first, 48.4 µg/mL for the second.

With `c1csc(-c2nc(-c3ccc(-c4ccon4)s3)no2)c1` the solubility kinetic was 0.5 µg/mL (≈ 1.66 µM).

Source: PubChem BioAssay AID1996
